The nature of data set [1]: Mammalian cytotoxicity assay (resazurin), COS-1 cells. The settings on record: African green monkey, read-out: Cytotox. COS-1. The class given is cell-based. As to the method: (§1) COS-1 and CHO-K1 cell suspensions were prepared, seeded into 96-well tissue culture treated black-walled microtiter plates (density determined by cell line), and incubated overnight at 37° C., in 5% CO2 and approximately 95% humidity. The following day, serial dilutions of compound were prepared under sterile conditions and transferred to cell plates. Cell/Compound plates were incubated under the above conditions for 24 hours. Following the incubation period, media/compound was aspirated and 50 μl of resazurin (0.042 mg/ml in PBS w/Ca and Mg) is added. The plates were then incubated under the above conditions for 2 hours and then placed in the dark at room temperature for an additional 30 minutes. Fluorescence measurements were taken (excitation 535 nm, emission 590 nm). The IC50 (concentration of compound causing 50% growth inhibition) was then calculated. Table 3 includes IC50 data for several substituted tetracycline compounds.
Background: Alamar Blue is a resazurin reagent that responds to reducing activity.

Data set [2] in a line: in vitro. The class given is cell-based. The settings on record: Chinese hamster, Cytotox. CHO-K1. The protocol:
as §1

The test system of data set [3] is gram negative bacteria. The data set can be described thus: In vitro anti-bacterial activity assay (broth dilution MIC), gram negative bacteria. In kind it is cell-based, E. coli. An excerpt:
(§2) Bacterial infections may be caused by a wide variety of gram positive and gram negative bacteria. Some of the compounds of the invention are useful as antibiotics against organisms which are resistant and/or sensitive to other tetracycline compounds. The antibiotic activity of the tetracycline compounds of the invention may by using the in vitro standard broth dilution method described in Waitz, J. A., CLSI, Document M7-A2, vol. 10, no. 8, pp. 13-20, 2nd edition, Villanova, Pa. (1990).
(§3) The following assay was used to determine the efficacy of the tetracycline compounds against gram positive and gram negative bacteria. 2 mg of each compound was dissolved in 100 μl of DMSO. […] The tetracycline compound solutions were diluted to 50 μL volumes, with a test compound concentration of 0.098 μg/ml. Optical density (OD) determinations were made from fresh log-phase broth cultures of the test strains. Dilutions were made to achieve a final cell density of […] CFU/ml. At OD=1, cell densities for different genera were approximately:
(§4) 50 μl of the cell suspensions were added to each well of microtiter plates. The final cell density was approximately 5×10^5 CFU/ml. These plates were incubated at 35° C. in an ambient air incubator for approximately 18 hours. The plates were read with a microplate reader and were visually inspected when necessary. The MIC was defined as the lowest concentration of the tetracycline compound that inhibits growth. Table 3 includes MIC data for several substituted tetracycline compounds.
Background: Broth dilution looks for growth in wells or tubes with falling amounts of substance.

Data set [4] has as its system 3T3 fibroblast cells. The data set can be described thus: In vitro phototoxicity assay (neutral red; UV light-treated vs dark control plates). In kind it is cell-based. Conditions: for Photo Toxicity UV Tox50: UV light 50 minutes; for Photo Toxicity Dark Tox50: dark control plate. As to the method:
3T3 fibroblast cells were harvested and plated at a concentration of 1×10^5 cells/mL and the plates were incubated overnight at 37° C., in 5% CO2 and approximately 95% humidity. On the following day the medium was removed from the plates and replaced with Hanks' Balanced Salt Solution (HBSS). Compound dilutions were made in HBSS and added to the plates. For each compound tested, a duplicate plate was prepared that was not exposed to light as a control for compound toxicity. Plates were then incubated in a dark drawer (for controls), or under UV light (meter reading of 1.6-1.8 mW/cm^2) for 50 minutes. Cells were then washed with HBSS, fresh medium was added, and plates were incubated overnight as described above. The following day neutral red was added as an indicator of cell viability. The plates were then incubated for an additional 3 hours. Cells were then washed with HBSS and blotted on absorbent paper to remove excess liquid. A solution of 50% EtOH, 10% glacial acetic acid was added and after 20 minutes incubation the plate's absorbance at 535 nm was read using a Wallac Victor 5 spectrophotometer. The phototoxicity reflected the difference between the light-treated and control cultures. Table 3 includes phototoxicity (μM) data for several substituted tetracycline compounds.

Data set [5] has as its system gram positive bacteria. The experiment in a line: In vitro anti-bacterial activity assay (broth dilution MIC), gram positive bacteria. The class given is cell-based, S. aureus. Conditions: 18 h.
Excerpt: as §2, §3, §4

Setting [6] is: Escherichia coli, 18 h, E. coli D1 209, read-out: Median MIC's G− E. coli D1 209.
[7] abbreviates: Escherichia coli, 18 h, E. coli MG 1655, read-out: Median MIC's G− E. coli MG 1655.
The mark [8] stands for this setting: Escherichia coli, ATCC25922, 18 h, E. coli ATCC 25922, read-out: Median MIC's G− E. coli ATCC 25922.
Setting [9] is: Pseudomonas aeruginosa, 18 h, P. aeruginosa K201 PAO6609, read-out: Median MIC's G− P. aeruginosa K201 PAO6609.
The mark [10] stands for this setting: Staphylococcus aureus, S. aureus MRSA5, read-out: Median MIC's G+ S. aureus MRSA5.
Where [11] appears, read: Staphylococcus aureus, S. aureus RN450, read-out: Median MIC's G+ S. aureus RN450.
[12] abbreviates: Streptococcus pneumoniae, S. pneumoniae 157E-Strep, read-out: Median MIC's G+ S. pneumoniae 157E-Strep.

In brackets after ≈: the same amount, converted by molar mass. Read-outs that look alike come from different tables or passages of the source.

One may read the MIC as the lowest concentration that inhibits growth of the organism.

For `CN(C)CCNC(=O)c1cccc(-c2cc(N(C)C)c3c(c2O)C(=O)C2=C(O)[C@]4(O)C(=O)C(C(N)=O)=C(O)[C@@H](N(C)C)[C@@H]4C[C@@H]2C3)c1` [V, (4S,4aS,5aR,12aS)-4,7-Bis-dimethylamino-9-[3-(2-dimethylamino-ethylcarbamoyl)-phenyl]-3,10,12,12a-tetrahydroxy-1,11-dioxo-1,4,4a,5,5a,6,11,12a-octahydro-naphthacene-2-carboxylic acid amide], the IC50 at 24 h in data set [1] and in data set [2] was more than 125 µM in each case. In addition, the MIC came out at 64 µg/mL (≈ 98.8 µM) in data set [3] (setting [6]); 64 µg/mL (≈ 98.8 µM) in data set [3] (setting [7]); 64 µg/mL (≈ 98.8 µM) in data set [3] (setting [8]); 64 µg/mL (≈ 98.8 µM) in data set [3] (setting [9]); 64 µg/mL (≈ 98.8 µM) in data set [5] (setting [10]); 16 µg/mL (≈ 24.7 µM) in data set [5] (setting [11]). The MIC in data set [5] (setting [12]) amounted to 32 µg/mL (≈ 49.4 µM). In addition, the “Photo Toxicity UV Tox50” value in data set [4] is more than 125.47 µM. Further, in data set [4], the “Photo Toxicity Dark Tox50” value is more than 125.47 µM.
Regarding `CN(C)[C@H]1C(O)=C(C(N)=O)C(=O)[C@@]2(O)C(O)=C3C(=O)c4c(O)ccc(-c5cccc(CCCN6CCCCC6)c5)c4C[C@H]3C[C@@H]12` [BN], the IC50 at 24 h in data set [1] and in data set [2] was more than 63 µM in each case. Further, the MIC was found to be 32 µg/mL (≈ 52 µM) in data set [3] (setting [6]); 32 µg/mL (≈ 52 µM) in data set [3] (setting [7]); 16 µg/mL (≈ 26 µM) in data set [3] (setting [8]); 64 µg/mL (≈ 104 µM) in data set [3] (setting [9]); 32 µg/mL (≈ 52 µM) in data set [5] (setting [10]); 4 µg/mL (≈ 6.5 µM) in data set [5] (setting [11]). Besides, the MIC in data set [5] (setting [12]) was determined as 0.25 µg/mL (≈ 0.406 µM). In addition, in data set [4], the “Photo Toxicity UV Tox50” value amounted to 33.41 µM. Moreover, the “Photo Toxicity Dark Tox50” value in data set [4] was more than 200 µM.
Consider `CCCCNC(=O)c1cccc(-c2ccc(O)c3c2C[C@H]2C[C@H]4[C@H](N(C)C)C(O)=C(C(N)=O)C(=O)[C@@]4(O)C(O)=C2C3=O)c1` [F], for which the IC50 at 24 h in data set [1] is 15.2 µM; in data set [2], more than 15.2 µM. In addition, the MIC in data set [3] (setting [6]) was 64 µg/mL (≈ 109 µM); in data set [3] (setting [7]), 64 µg/mL (≈ 109 µM); in data set [3] (setting [8]), 64 µg/mL (≈ 109 µM); in data set [3] (setting [9]), 64 µg/mL (≈ 109 µM); in data set [5] (Staphylococcus aureus, read-out: Median MIC's G+ S. aureus MRSA5), 1 µg/mL (≈ 1.7 µM); in data set [5] (Staphylococcus aureus, read-out: Median MIC's G+ S. aureus RN450) it was 0.06 µg/mL (≈ 0.102 µM). Further, the MIC in data set [5] (Streptococcus pneumoniae, read-out: Median MIC's G+ S. pneumoniae 157E-Strep) came to 0.06 µg/mL (≈ 0.102 µM). In addition, the “Photo Toxicity UV Tox50” value in data set [4] was more than 151.73 µM. In data set [4], the “Photo Toxicity Dark Tox50” value was more than 151.73 µM.
With `COC(C)CNCC(=O)c1ccc(O)c2c1C[C@H]1C[C@H]3[C@H](N(C)C)C(O)=C(C(N)=O)C(=O)[C@@]3(O)C(O)=C1C2=O` (stereo partly shown) [CA], the IC50 at 24 h in data set [1] and in data set [2] was more than 146 µM throughout. Further, the minimal inhibitory concentration (MIC) in data set [3] (setting [6]) was determined as 64 µg/mL (≈ 118 µM); in data set [3] (setting [7]), 32 µg/mL (≈ 58.9 µM); in data set [3] (setting [8]), 32 µg/mL (≈ 58.9 µM); in data set [3] (setting [9]), 64 µg/mL (≈ 118 µM); in data set [5] (setting [10]), 32 µg/mL (≈ 58.9 µM); in data set [5] (setting [11]) it was 4 µg/mL (≈ 7.36 µM). In addition, the MIC in data set [5] (setting [12]) was 2 µg/mL (≈ 3.68 µM). Moreover, the “Photo Toxicity UV Tox50” value in data set [4] is more than 145.98 µM. Further, the “Photo Toxicity Dark Tox50” value in data set [4] is more than 145.98 µM.
As to `CN(C)CCCc1cccc(-c2ccc(O)c3c2C[C@H]2C[C@H]4[C@H](N(C)C)C(O)=C(C(N)=O)C(=O)[C@@]4(O)C(O)=C2C3=O)c1` [DJ], the values for the IC50 at 24 h in data set [1] and in data set [2] were 141 µM and 119 µM, respectively. Further, the minimal inhibitory concentration (MIC) in data set [3] (setting [6]) came out at 2 µg/mL (≈ 3.47 µM); in data set [3] (setting [7]) it was 8 µg/mL (≈ 13.9 µM); in data set [3] (setting [8]), 2 µg/mL (≈ 3.47 µM); in data set [3] (setting [9]), 64 µg/mL (≈ 111 µM); in data set [5] (setting [10]) it was 4 µg/mL (≈ 6.95 µM); in data set [5] (setting [11]), 0.0625 µg/mL (≈ 0.109 µM). The MIC in data set [5] (setting [12]) worked out at 0.06 µg/mL (≈ 0.104 µM). Besides, the “Photo Toxicity UV Tox50” value in data set [4] was more than 200 µM. The “Photo Toxicity Dark Tox50” value in data set [4] was more than 200 µM.
